Experimental data as given in patent publication US20060154243A1 (priority 2003, published 2006).

Key:
Assay type in all cases: binding, human
[1] = system: serum 1a (individual 1, early serum)
[2] = system: serum 1b (individual 1, late serum)
[3] = system: serum 2 (individual 2)
[4] = system: serum 6 (individual 6)
[5] = system: serum 37 (individual 37)
[6] = system: serum 62 (individual 62)
[7] = system: serum London
[8] = system: serum SARS-yellow
[9] = system: serum SARS-green
[10] = system: control serum LUMC (pooled serum of ten healthy hospital workers)
[11] = system: control serum Blood-bank (commercial negative donor pooled serum)

| Sequence | Binding of serum 1a to linear peptides of Orf14 of SARS-CoV TOR2 [1] | Binding of serum 1b to linear peptides of Orf14 of SARS-CoV TOR2 [2] | Binding of serum 2 to linear peptides of Orf14 of SARS-CoV TOR2 [3] | Binding of serum 6 to linear peptides of Orf14 of SARS-CoV TOR2 [4] | Binding of serum 37 to linear peptides of Orf14 of SARS-CoV TOR2 [5] | Binding of serum 62 to linear peptides of Orf14 of SARS-CoV TOR2 [6] | Binding of serum London to linear peptides of Orf14 of SARS-CoV TOR2 [7] | Binding of serum SARS-yellow to linear peptides of Orf14 of SARS-CoV TOR2 [8] | Binding of serum SARS-green to linear peptides of Orf14 of SARS-CoV TOR2 [9] | Control serum LUMC linear peptides [10] | Control serum LUMC looped peptides [10] | Control Serum Blood-Bank Looped peptides [11] | Control serum Blood-bank linear peptides [11] |
| --- | --- | --- | --- | --- | --- | --- | --- | --- | --- | --- | --- | --- | --- |
| KPLLAPHHVVAVIQE | 0.5 | 0.4 | 0.4 | 0.4 | 0.6 | 0.4 | 0.4 | 0.4 | 0.3 | 0.6 | 0.6 | 0.6 | 0.5 |
| LAAVGEILLLEWLAE | 0.6 | 0.5 | 0.5 | 0.5 | 0.7 | 0.5 | 0.6 | 0.6 | 0.5 | 0.6 | 0.7 | 0.7 | 0.4 |
| LAPHHVVAVIQEIQL | 0.5 | 0.4 | 0.4 | 0.4 | 0.5 | 0.4 | 0.4 | 0.4 | 0.1 | 0.6 | 0.5 | 0.5 | 0.3 |
| LEWLAEVVKLPSRYC | 0.6 | 0.3 | 0.4 | 0.4 | 0.7 | 0.4 | 0.5 | 0.2 | 0.1 | 0.4 | 0.7 | 0.8 | 0.4 |
| LLAAVGEILLLEWLA | 0.5 | 0.4 | 0.4 | 0.4 | 0.6 | 0.4 | 0.4 | 0.4 | 0.1 | 0.6 | 0.6 | 0.6 | 0.5 |
| LLAPHHVVAVIQEIQ | 0.5 | 0.5 | 0.5 | 0.5 | 0.6 | 0.5 | 0.5 | 0.5 | 0.3 | 0.6 | 0.8 | 0.8 | 0.4 |
| LLEWLAEVVKLPSRY | 0.5 | 0.4 | 0.3 | 0.5 | 0.5 | 0.4 | 0.4 | 0.3 | 0.1 | 0.4 | 0.6 | 0.6 | 0.5 |
